Data: patent US20130165446A1 (priority 2010, published 2013)
Values belong to the molecule of their own block, whether it stands above or below them.

Key:
[1] = target: T1, human recombinant (CHO cell) AT1 receptor (Homo sapiens, UniProt P30556); test: Angiotensin II inhibition test (radioligand binding to AT1 receptor); conditions: test compound concentration 10^−9 M, radioactive iodine-labeled angiotensin II, 37° C., sixty minutes; for inhibition at 0.001 µM: read-out: Inhibition rate (%)
T1 construct: expressed in transfected cells; host or cells: CHO cells
T1 sequence (P30556 1-359): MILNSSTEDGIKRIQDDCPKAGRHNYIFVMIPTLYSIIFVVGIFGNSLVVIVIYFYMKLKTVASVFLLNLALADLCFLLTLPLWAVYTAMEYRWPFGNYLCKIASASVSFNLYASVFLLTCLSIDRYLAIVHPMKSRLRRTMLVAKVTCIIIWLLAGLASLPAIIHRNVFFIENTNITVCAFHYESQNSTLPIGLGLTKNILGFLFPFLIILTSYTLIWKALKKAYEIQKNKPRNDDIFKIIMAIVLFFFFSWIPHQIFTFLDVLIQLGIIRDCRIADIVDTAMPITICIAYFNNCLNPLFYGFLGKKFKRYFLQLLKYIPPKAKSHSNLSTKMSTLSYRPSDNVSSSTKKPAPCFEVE
Experimental: A test of inhibition of angiotensin II to human recombinant (CHO cell) AT1 receptor following a method described in the literature (for example, Regul. Pept., vol. 44 (2), page 131 (1993)) was used to measure inhibitory activity to a test compound.
The ligand used was 10^−9 M of a test compound dissolved in 1% DMSO (dimethylsulfoxide). This was reacted with radioactive iodine-labeled angiotensin II at 37° C. for sixty minutes. Taking the inhibition rate of angiotensin II at 10 μM as nonspecific binding, the specific binding rate was calculated by subtracting this nonspecific portion. Table 6 indicates the results (the inhibition rate at test compound concentration: 10^−9 M)

[2] = test system: ob/ob mice (C57b1/6ob/ob female mice); test: Glucose tolerance test (in vivo); conditions: fasted ob/ob mice, oral load 2 g/kg glucose, Example 8 oral 10 mg/kg days 1-25 then 20 mg/kg days 26-33, rosiglitazone 3 mg/kg, n=8
Experimental: (§1) A test compound (the compound of Example 8, n=8) was given orally to 5- to 6-week-old ob/ob mice (C57b1/6ob/ob female mice) at a dose of 10 mg/kg for 1-25 days, then a test compound (the compound of Example 8) was given at 20 mg/kg for 26-33 days. An oral load test of 2 g/kg of glucose was carried out while the mice were fasted, and the blood glucose concentration was measured at −30, 0, 30, 60, 90, 120, and 180 minutes. For comparison, 3 mg/kg of rosiglitazone (n=8) were given for 1-25 days, then 3 mg/kg of rosiglitazone were given for 26-33 days, and the blood glucose concentration was measured in the same manner. Table 7 indicates the results.

[3] = Weight gain test (in vivo); conditions: ob/ob mice, Example 8 10 mg/kg, rosiglitazone 3 mg/kg, days 1-25
Experimental: as §1
The body weight of mice was measured when 10 mg/kg of the same test compound (the compound of Example 8) were given for 1-25 days, and 3 mg/kg of rosiglitazone were given for 1-25 days. Table 8 indicates the results.

inhibition at 0.001 µM [1]: 22%
Structure (SMILES): CCCc1nc(CNc2ccc(Oc3ccc4nc(COc5ccc(CC6SC(=O)NC6=O)cc5)n(C)c4c3)cc2)c(C(=O)OCC)n1Cc1ccc(-c2ccccc2-c2nnn[nH]2)cc1 (centres unmarked) [Example 31, 4-{N-[4-[2-(4-[2,4-dioxothiazolidin-5-ylmethyl]phenoxymethyl)-1-methyl-1H-benzimidazol-6-yloxy]phenyl]aminomethyl}-2-propyl-1-[2′-(1H-tetrazol-5-yl)biphenyl-4-ylmethyl]-1H-imidazole-5-carboxylic acid ethyl ester]

inhibition at 0.001 µM [1]: 51%
Structure (SMILES): CCCc1nc2c(C)cc(COc3ccc4nc(COc5ccc(CC6SC(=O)NC6=O)cc5)n(C)c4c3)cc2n1Cc1ccc(-c2ccccc2-c2nnn[nH]2)cc1 (centres unmarked) [Example 1, 5-(4-{6-[4-methyl-2-propyl-1-[2′-(1H-tetrazol-5-yl)biphenyl-4-ylmethyl]-1H-benzimidazol-6-ylmethoxy]-1-methyl-1H-benzimidazol-2-ylmethoxy}benzyl)thiazolidine-2,4-dione]

inhibition at 0.001 µM [1]: 32%
Structure (SMILES): CCCc1nc(C[S+]([O-])c2ccc(Oc3ccc4nc(COc5ccc(CC6SC(=O)NC6=O)cc5)n(C)c4c3)cc2)c(C(=O)OCC)n1Cc1ccc(-c2ccccc2-c2nnn[nH]2)cc1 (centres unmarked) [Example 25, 4-[4-{2-[4-(2,4-dioxothiazolidin-5-ylmethyl)phenoxymethyl]-1-methyl-1H-benzimidazol-6-yloxy}phenylsulfinylmethyl]-2-propyl-1-[2′-(1H-tetrazol-5-yl)biphenyl-4-ylmethyl]-1H-imidazole-5-carboxylic acid ethyl ester]

inhibition at 0.001 µM [1]: 47%
Structure (SMILES): CCCc1nc(CSCCOc2ccc3nc(COc4ccc(CC5SC(=O)NC5=O)cc4)n(C)c3c2)c(C(=O)OCC)n1Cc1ccc(-c2ccccc2-c2nnn[nH]2)cc1 (centres unmarked) [Example 15, 4-[2-[1-methyl-2-{4-(2,4-dioxothiazolidin-5-ylmethyl)phenoxymethyl}-1H-benzimidazol-6-yloxy]ethylthiomethyl]-2-propyl-1-[2′-(1H-tetrazol-5-yl)biphenyl-4-ylmethyl]-1H-imidazole-5-carboxylic acid ethyl ester]

inhibition at 0.001 µM [1]: 44%
Structure (SMILES): CCCc1nc(CS(=O)(=O)c2ccc(Oc3ccc4nc(COc5ccc(CC6SC(=O)NC6=O)cc5)n(C)c4c3)cc2)c(C(=O)OCC)n1Cc1ccc(-c2ccccc2-c2nnn[nH]2)cc1 (centres unmarked) [Example 26, 4-[4-{2-[4-(2,4-dioxothiazolidin-5-ylmethyl)phenoxymethyl]-1-methyl-1H-benzimidazol-6-yloxy}phenylsulfonylmethyl]-2-propyl-1-[2′-(1H-tetrazol-5-yl)biphenyl-4-ylmethyl]-1H-imidazole-5-carboxylic acid ethyl ester]

The remaining lines, values behind:

Structure (SMILES): CCCc1nc(COc2ccc(Sc3ccc4nc(COc5ccc(CC6SC(=O)NC6=O)cc5)n(C)c4c3)cc2)c(C(=O)OCC)n1Cc1ccc(-c2ccccc2-c2nnn[nH]2)cc1 (centres unmarked) [Example 29, 4-[4-{2-[4-(2,4-dixothiazolidin-5-ylmethyl)phenoxymethyl]-1-methyl-1H-benzimidazol-6-ylthio}phenoxymethyl]-2-propyl-1-[2′-(1H-tetrazol-5-yl)biphenyl-4-ylmethyl]-1H-imidazole-5-carboxylic acid ethyl ester]
Inhibition rate (%) [1]: 40%

Structure (SMILES): CN(CCOc1ccc(CC2SC(=O)NC2=O)cc1)c1ccccn1 (centres unmarked) [Rosiglitazone, rosiglitazone, reference compound]
Glucose concentration ([2]; 0 min): 4.6 ± 0.3 mmol/L
Glucose concentration ([2]; 30 min): 12.5 ± 0.9 mmol/L
Glucose concentration ([2]; 60 min): 4.9 ± 0.3 mmol/L
Glucose concentration ([2]; 120 min): 4.6 ± 0.1 mmol/L
Glucose concentration ([2]; 180 min): 4.6 ± 0.1 mmol/L
Glucose concentration ([2]; −30 min): 4.6 ± 0.3 mmol/L
Weight gain ([3]; day 0): 0 g
Weight gain ([3]; day 4): 1.2 ± 0.1 g
Weight gain ([3]; day 11): 4.5 ± 0.3 g
Weight gain ([3]; day 14): 5.8 ± 0.1 g
Weight gain ([3]; day 18): 7.5 ± 0.2 g
Weight gain ([3]; day 24): 8.9 ± 0.2 g

Structure (SMILES): CCCc1nc(CSc2ccc(Oc3ccc4nc(COc5ccc(CC6SC(=O)NC6=O)cc5)n(C)c4c3)cc2)c(C(=O)NC)n1Cc1ccc(-c2ccccc2-c2nnn[nH]2)cc1 (centres unmarked) [Example 27, N-methyl-(4-[4-{2-[4-(2,4-dioxothiazolidyn-5-ylmethyl)phenoxymethyl]-1-methyl-1H-benzimidazol-6-yloxy}phenylthiomethyl]-2-propyl-1-[2′-(1H-tetrazol-5-yl)biphenyl-4-ylmethyl]-1H-imidazole)-5-carboxamide]
Inhibition rate (%) [1]: 66%

Structure (SMILES): CCCc1nc2c(C)cc(-c3nc4ccc(N(C)CCOc5ccc6nc(COc7ccc(CC8SC(=O)NC8=O)cc7)n(C)c6c5)cc4n3C)cc2n1Cc1ccc(-c2ccccc2-c2nnn[nH]2)cc1 (centres unmarked) [Example 3, 5-[4-[6-{2-(N-(1-methyl-2-[4-methyl-2-propyl-1-(2′-(1H-tetrazol-5-yl)biphenyl-4-ylmethyl)-1H-benzimidazol-6-yl]-1H-benzamidazol-6-yl)-N-methylamino)ethoxy}-1-methyl-1H-benzimidazol-2-ylmethoxy]benzyl]thiazolidine-2,4-dione]
Inhibition rate (%) [1]: 60%

Structure (SMILES): CCCc1nc(CSc2ccc3nc(COc4ccc(CN(CC(=O)O)C(=O)Oc5ccccc5)cc4)n(C)c3c2)c(C(=O)OCC)n1Cc1ccc(-c2ccccc2-c2nnn[nH]2)cc1 [Example 36, N-[4-{6-[5-ethoxycarbonyl-1-{2′-(1H-tetrazol-5-yl)biphenyl-4-ylmethyl}-2-propyl-1H-imidazol-4-ylmethylthio]-1-methyl-1H-benzimidazol-2-ylmethoxy}phenylmethyl]-N-phenyloxycarbonylaminoacetic acid]
inhibition at 0.001 µM [1]: 83%

Structure (SMILES): CCCc1nc2c(C)cc(CN(C)c3ccc4nc(COc5ccc(CC6SC(=O)NC6=O)cc5)n(C)c4n3)cc2n1Cc1ccc(-c2ccccc2C(=O)O)cc1 (centres unmarked) [Example 10, 4′-[6-(N-{2-[4-(2,4-dioxothiazolidin-5-ylmethyl)phenoxymethyl]-3-methyl-3H-imidazo[4,5-b]pyridin-5-yl}-N-methylaminomethyl)-4-methyl-2-propyl-1H-benzimidazol-1-ylmethyl]biphenyl-2-carboxylic acid]
inhibition at 0.001 µM [1]: 41%

Structure (SMILES): CCCc1nc(CSc2ccc3nc(COc4ccc(CC(OCc5ccc(Cl)cc5)C(=O)O)cc4)n(C)c3c2)c(C(=O)OCC)n1Cc1ccc(-c2ccccc2-c2nnn[nH]2)cc1 (centres unmarked) [Example 35, 3-[4-[6-(5-ethoxycarbonyl-1-{2′-(1H-tetrazol-5-yl)biphenyl-4-ylmethyl}-2-propyl-1H-imidazol-4-ylmethylthio)-1-methyl-1H-benzimidazol-2-ylmethoxy]phenyl]-2-(4-chlorobenzyloxy)propionic acid]
inhibition at 0.001 µM [1]: 90%
